According to patent US20240150369A1, “CYCLIN-DEPENDENT KINASE INHIBITING COMPOUNDS FOR THE TREATMENT OF MEDICAL DISORDERS” (G1 Therapeutics, Inc., priority 2020, published 2024):

Columns and labels:
Format in all cases: biochemical
CDK2/Cyclin E = CDK2/Cyclin E (Homo sapiens (Human), UniProt P24941); assay: CDK2/Cyclin E kinase assay (Nanosyn, Caliper microfluidic); settings: 12-point dose-response, singlicate, at Km for ATP; ATP 100 μM; 3 hr
Method: (§1) Selected compounds disclosed herein were tested in kinase assays by Nanosyn (Santa Clara, CA) to determine their inhibitory effect on these CDKs. The assays were performed using microfluidic kinase detection technology (Caliper Assay Platform). The compounds were tested in 12-point dose-response format in singlicate at Km for ATP. Specifics of each assay are as described below:
CDK2/Cyclin E: Enzyme concentration: 0.15 nM; ATP concentration: 100 μM; Incubation time: 3 hr.

CDK1/Cyclin B1 = CDK1/Cyclin B1 (Homo sapiens (Human), UniProt P06493); assay: CDK1/Cyclin B1 kinase assay (Nanosyn, Caliper microfluidic); settings: 12-point dose-response, singlicate, at Km for ATP; ATP 40 μM; 3 hr
Method: as §1
CDK1/Cyclin B1: Enzyme concentration: 0.08 nM; ATP concentration: 40 μM; Incubation time: 3 hr.

CDK6/Cyclin D3 = CDK6/Cyclin D3 (Homo sapiens (Human), UniProt Q00534); assay: CDK6/Cyclin D3 kinase assay (Nanosyn, Caliper microfluidic); settings: 12-point dose-response, singlicate, at Km for ATP; ATP 300 μM; 3 hr
Method: as §1
CDK6/Cyclin D3: Enzyme concentration: 2 nM; ATP concentration: 300 μM; Incubation time: 3 hr.

CDK2/Cyclin A = CDK2/Cyclin A (Homo sapiens (Human), UniProt P24941); assay: CDK2/Cyclin A kinase assay (Nanosyn, Caliper microfluidic); settings: 12-point dose-response, singlicate, at Km for ATP; ATP 50 μM; 3 hr
Method: as §1
CDK2/Cyclin A: Enzyme concentration: 0.1 nM; ATP concentration: 50 μM; Incubation time: 3 hr.

CDK4/Cyclin D1 = CDK4/Cyclin D1 (Homo sapiens (Human), UniProt P11802); assay: CDK4/Cyclin D1 kinase assay (Nanosyn, Caliper microfluidic); settings: 12-point dose-response, singlicate, at Km for ATP; ATP 200 μM; 3 hr
Method: as §1
CDK4/Cyclin D1: Enzyme concentration: 1 nM; ATP concentration: 200 μM; Incubation time: 3 hr.

CDK9/Cyclin T1 = CDK9/Cyclin T1 (Homo sapiens (Human), UniProt P50750); assay: CDK9/Cyclin T1 kinase assay (Nanosyn, Caliper microfluidic); settings: 12-point dose-response, singlicate, at Km for ATP; ATP 10 μM; 17 hr
Method: as §1
CDK9/Cyclin T1: Enzyme concentration: 5 nM; ATP concentration: 10 μM; Incubation time: 17 hr.

CDK3-CYCLIN-E = CDK3-CYCLIN-E (Homo sapiens (Human), UniProt Q00526); assay: CDK3-Cyclin-E kinase assay (Nanosyn, Caliper microfluidic); settings: 12-point dose-response, singlicate, at Km for ATP
Method: as §1, with “ATP.” for “ATP. Specifics of each assay are as described below:”

CDK7 = CDK7 (Homo sapiens (Human), UniProt P50613); assay: CDK7 kinase assay (Nanosyn, Caliper microfluidic); settings: 12-point dose-response, singlicate, at Km for ATP
Method: as §1, with “ATP.” for “ATP. Specifics of each assay are as described below:”

Chain of CDK6/Cyclin D3 (Q00534 whole entry): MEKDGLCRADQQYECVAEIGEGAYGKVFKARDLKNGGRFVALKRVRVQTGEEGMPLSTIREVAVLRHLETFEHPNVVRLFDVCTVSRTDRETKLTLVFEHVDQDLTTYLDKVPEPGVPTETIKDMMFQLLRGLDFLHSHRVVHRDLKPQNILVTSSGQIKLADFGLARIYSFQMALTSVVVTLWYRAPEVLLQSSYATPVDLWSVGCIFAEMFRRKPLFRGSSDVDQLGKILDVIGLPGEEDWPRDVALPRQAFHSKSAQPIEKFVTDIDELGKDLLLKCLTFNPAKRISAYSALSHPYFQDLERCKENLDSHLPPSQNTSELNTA
Chain of CDK6/Cyclin D3 (P30281 whole entry partner): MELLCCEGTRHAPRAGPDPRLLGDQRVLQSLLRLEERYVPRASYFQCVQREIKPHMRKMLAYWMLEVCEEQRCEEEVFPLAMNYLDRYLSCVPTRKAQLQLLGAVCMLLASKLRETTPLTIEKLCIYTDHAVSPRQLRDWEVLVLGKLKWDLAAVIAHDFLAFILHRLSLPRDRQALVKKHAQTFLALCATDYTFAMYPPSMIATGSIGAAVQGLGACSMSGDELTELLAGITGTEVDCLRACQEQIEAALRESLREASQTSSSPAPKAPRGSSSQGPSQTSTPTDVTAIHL
Chain of CDK1/Cyclin B1 (P06493 whole entry): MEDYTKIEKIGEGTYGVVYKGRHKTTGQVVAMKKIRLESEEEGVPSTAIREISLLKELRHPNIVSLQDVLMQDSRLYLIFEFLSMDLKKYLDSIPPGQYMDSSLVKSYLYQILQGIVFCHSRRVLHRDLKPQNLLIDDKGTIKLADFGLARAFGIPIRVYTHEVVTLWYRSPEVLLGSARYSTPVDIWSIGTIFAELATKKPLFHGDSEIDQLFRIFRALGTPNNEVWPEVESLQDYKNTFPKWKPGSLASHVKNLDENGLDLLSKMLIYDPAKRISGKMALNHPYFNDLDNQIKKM
Chain of CDK1/Cyclin B1 (P14635 whole entry partner): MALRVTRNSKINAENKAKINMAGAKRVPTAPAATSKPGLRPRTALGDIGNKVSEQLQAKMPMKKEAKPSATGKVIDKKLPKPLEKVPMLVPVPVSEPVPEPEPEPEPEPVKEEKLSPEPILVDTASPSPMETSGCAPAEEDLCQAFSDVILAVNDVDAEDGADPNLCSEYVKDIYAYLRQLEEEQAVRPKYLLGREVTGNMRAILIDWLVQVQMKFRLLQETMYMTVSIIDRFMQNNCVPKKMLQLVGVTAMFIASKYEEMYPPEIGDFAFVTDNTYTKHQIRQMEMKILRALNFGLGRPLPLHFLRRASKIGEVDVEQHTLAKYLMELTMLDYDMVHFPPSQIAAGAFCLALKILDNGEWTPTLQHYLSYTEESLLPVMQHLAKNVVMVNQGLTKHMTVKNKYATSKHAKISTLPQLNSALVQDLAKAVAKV
Chain of CDK7 (P50613 whole entry): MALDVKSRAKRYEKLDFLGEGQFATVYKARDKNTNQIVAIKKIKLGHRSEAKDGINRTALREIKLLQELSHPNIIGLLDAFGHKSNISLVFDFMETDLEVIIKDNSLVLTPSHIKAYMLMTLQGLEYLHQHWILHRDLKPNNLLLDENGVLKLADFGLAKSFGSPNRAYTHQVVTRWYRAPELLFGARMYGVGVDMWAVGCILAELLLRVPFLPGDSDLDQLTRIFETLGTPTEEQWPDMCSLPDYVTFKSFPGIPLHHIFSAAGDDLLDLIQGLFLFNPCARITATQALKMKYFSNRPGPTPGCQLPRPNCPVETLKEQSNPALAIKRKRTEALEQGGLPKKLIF
Chain of CDK7 (P51946 whole entry partner): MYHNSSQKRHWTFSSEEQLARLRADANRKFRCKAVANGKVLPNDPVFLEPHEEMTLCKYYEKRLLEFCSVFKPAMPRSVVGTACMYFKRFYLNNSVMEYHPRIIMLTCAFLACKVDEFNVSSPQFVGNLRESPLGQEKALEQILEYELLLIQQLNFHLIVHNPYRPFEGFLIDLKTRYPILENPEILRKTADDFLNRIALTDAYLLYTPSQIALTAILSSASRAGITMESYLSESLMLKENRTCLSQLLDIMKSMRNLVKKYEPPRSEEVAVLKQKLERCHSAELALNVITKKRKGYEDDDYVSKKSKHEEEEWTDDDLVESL
Chain of CDK7 (P51948 whole entry partner): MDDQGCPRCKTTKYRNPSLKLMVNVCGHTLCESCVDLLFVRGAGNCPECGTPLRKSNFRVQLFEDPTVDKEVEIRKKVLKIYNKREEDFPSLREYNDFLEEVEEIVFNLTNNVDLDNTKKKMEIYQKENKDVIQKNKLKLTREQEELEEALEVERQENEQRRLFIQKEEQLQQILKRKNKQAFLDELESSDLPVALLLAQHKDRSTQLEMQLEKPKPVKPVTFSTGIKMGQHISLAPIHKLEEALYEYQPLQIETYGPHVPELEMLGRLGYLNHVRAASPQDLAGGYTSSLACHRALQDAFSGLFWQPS
Chain of CDK9/Cyclin T1 (P50750 whole entry): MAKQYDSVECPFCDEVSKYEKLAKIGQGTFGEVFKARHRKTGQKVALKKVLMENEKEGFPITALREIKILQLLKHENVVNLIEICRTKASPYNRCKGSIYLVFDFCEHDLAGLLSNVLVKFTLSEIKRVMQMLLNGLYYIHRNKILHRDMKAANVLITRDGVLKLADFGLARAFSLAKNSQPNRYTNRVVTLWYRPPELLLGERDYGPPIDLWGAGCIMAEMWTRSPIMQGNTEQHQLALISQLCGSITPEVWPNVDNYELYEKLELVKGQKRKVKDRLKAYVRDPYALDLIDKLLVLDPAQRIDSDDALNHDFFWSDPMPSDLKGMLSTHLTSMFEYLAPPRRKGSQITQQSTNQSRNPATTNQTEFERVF
Chain of CDK9/Cyclin T1 (O60563 whole entry partner): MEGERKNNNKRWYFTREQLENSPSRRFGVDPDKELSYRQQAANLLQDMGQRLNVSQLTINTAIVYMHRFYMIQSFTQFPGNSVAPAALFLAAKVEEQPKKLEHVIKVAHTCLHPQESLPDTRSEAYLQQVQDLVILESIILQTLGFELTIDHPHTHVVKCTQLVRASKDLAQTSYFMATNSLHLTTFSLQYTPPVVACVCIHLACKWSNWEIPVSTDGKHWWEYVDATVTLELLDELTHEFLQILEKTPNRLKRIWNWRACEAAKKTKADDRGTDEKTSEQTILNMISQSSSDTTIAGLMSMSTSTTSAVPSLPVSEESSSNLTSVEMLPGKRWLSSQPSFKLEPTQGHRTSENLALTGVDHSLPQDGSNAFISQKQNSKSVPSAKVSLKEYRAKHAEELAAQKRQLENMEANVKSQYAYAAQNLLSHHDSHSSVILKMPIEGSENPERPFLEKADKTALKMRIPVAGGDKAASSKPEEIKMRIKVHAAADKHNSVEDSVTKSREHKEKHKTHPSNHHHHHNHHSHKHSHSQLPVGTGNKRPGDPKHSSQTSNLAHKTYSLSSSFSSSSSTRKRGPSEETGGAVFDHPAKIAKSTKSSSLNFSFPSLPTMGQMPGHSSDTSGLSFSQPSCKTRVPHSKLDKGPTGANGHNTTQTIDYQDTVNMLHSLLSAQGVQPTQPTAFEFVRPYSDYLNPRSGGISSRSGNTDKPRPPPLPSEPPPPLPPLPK
Chain of CDK4/Cyclin D1 (P11802 whole entry): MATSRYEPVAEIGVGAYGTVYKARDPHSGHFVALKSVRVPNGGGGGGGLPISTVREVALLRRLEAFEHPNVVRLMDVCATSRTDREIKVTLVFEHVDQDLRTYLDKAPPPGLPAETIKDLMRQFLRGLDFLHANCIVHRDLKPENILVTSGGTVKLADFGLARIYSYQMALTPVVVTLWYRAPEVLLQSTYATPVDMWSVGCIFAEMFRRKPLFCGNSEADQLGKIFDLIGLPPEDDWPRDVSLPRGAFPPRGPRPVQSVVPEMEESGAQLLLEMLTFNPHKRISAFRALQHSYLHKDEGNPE
Chain of CDK4/Cyclin D1 (P24385 whole entry partner): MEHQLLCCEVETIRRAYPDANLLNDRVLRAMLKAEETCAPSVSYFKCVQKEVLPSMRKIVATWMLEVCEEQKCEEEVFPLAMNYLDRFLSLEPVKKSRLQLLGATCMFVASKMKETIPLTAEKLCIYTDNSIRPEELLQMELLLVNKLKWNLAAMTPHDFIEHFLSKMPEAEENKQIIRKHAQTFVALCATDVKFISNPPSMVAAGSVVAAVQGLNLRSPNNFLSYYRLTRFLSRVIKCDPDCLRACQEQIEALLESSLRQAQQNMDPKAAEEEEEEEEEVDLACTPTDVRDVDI

| Compound | IC50 (CDK2/Cyclin E) [nM] | IC50 (CDK1/Cyclin B1) [nM] | IC50 (CDK6/Cyclin D3) [nM] | IC50 (CDK2/Cyclin A) [nM] | IC50 (CDK4/Cyclin D1) [nM] | IC50 (CDK9/Cyclin T1) [nM] | IC50 (CDK3-CYCLIN-E) [nM] | IC50 (CDK7) [nM] |
| --- | --- | --- | --- | --- | --- | --- | --- | --- |
| CC1C(=O)Nc2cc3cnc(Nc4ccc(C(=O)N5CCN(C)CC5)cc4)nc3n2C12CCCCC2 (stereo not shown) [Compound 71, 8′-methyl-2′-((4-(4-methylpiperazine-1-carbonyl)phenyl)amino)-6′H-spiro[cyclohexane-1,9′-pyrrolo[1,5-a:2,3-d′]dipyrimidin]-7′(8′H)-one] | 3 | 15 | 15 | 4 | 9 | 9 | – | – |
| CS(=N)(=O)c1ccc(Nc2ncc3cc4n(c3n2)C2(CCCCC2)C(=O)NN4)cc1 (stereo not shown) [Compound 79, 7′-((4-(S-methylsulfonimidoyl)phenyl)amino)-1′,2′-dihydro-3′H-spiro[cyclohexane-1,4′-pyrimido[5′,4′:4,5]pyrrolo[2,1-c][1,2,4]triazin]-3′-one] | 5 | 146 | 291 | 16 | 172 | 89 | – | – |
| CN1CCN(S(=O)(=O)c2ccc(Nc3ncc4cc5n(c4n3)C3(CCCCC3)C(=O)NC5O)cc2)CC1 (stereo not shown) [Compound 50, 6′-hydroxy-2′-((4-((4-methylpiperazin-1-yl)sulfonyl)phenyl)amino)-6′,7′-dihydro-8′H-spiro[cyclohexane-1,9′-pyrazino[1′,2′:1,5]pyrrolo[2,3-d]pyrimidin]-8′-one] | 4 | 78 | 51 | 2 | 113 | 2 | 28 | 118 |
| CC1C(=O)Nc2cc3cnc(Nc4ccc(S(=O)(=O)N5CCN(C)CC5)cc4)nc3n2C12CCCCC2 (stereo not shown) [Compound 59, 8′-methyl-2′-((4-((4-methylpiperazin-1-yl)sulfonyl)phenyl)amino)-6′H-spiro[cyclohexane-1,9′-pyrrolo[1,5-a:2,3-d′]dipyrimidin]-7′(8′H)-one] | 3 | 42 | 123 | 5 | 137 | 5 | 57 | 16 |
| CN1CCN(S(=O)(=O)c2ccc(Nc3ncc4cc5n(c4n3)C3(CCCCC3)CC(=O)N5)cc2)CC1 [Compound 51, 2′-((4-((4-methylpiperazin-1-yl)sulfonyl)phenyl)amino)-6′H-spiro[cyclohexane-1,9′-pyrrolo[1,5-a:2,3-d′]dipyrimidin]-7′(8′H)-one] | 5 | 31 | 63 | 4 | 41 | 5 | 23 | 66 |
| NC(=O)c1ccc(Nc2ncc3cc4n(c3n2)C2(CCCCC2)C(=O)NN4)cc1 [Compound 63, 4-((3′-oxo-2′,3′-dihydro-1′H-spiro[cyclohexane-1,4′-pyrimido[5′,4′:4,5]pyrrolo[2,1-c][1,2,4]triazin]-7′-yl)amino)benzamide] | 33 | 574 | 578 | 81 | 253 | 118 | 96 | 579 |
| NS(=O)(=O)c1ccc(Nc2ncc3cc4n(c3n2)C2(CCCCC2)C(=O)N[C@@H]4CF)cc1 [Compound 23, (S)-4-((6′-(fluoromethyl)-8′-oxo-7′,8′-dihydro-6′H-spiro[cyclohexane-1,9′-pyrazino[1′2′:1,5]pyrrolo[2,3-d]pyrimidin]-2′-yl)amino)benzenesulfonamide] | 1 | 20 | 45 | 1 | 19 | 11 | 6 | 682 |
| CC1=NNc2cc3cnc(Nc4ccc(S(N)(=O)=O)cc4)nc3n2C12CCCCC2 [Compound 45, 4-((3′-methyl-1′H-spiro[cyclohexane-1,4′-pyrimido[5′,4′:4,5]pyrrolo[2,1-c][1,2,4]triazin]-7′-yl)amino)benzenesulfonamide] | 19 | 108 | > 1000 | 16 | 436 | 240 | 73 | > 1000 |
| O=C(c1ccc(Nc2ncc3cc4n(c3n2)C2(CCCCC2)C(=O)NN4)cc1)N1CCOCC1 [Compound 74, 7′-((4-(morpholine-4-carbonyl)phenyl)amino)-1′,2′-dihydro-3′H-spiro[cyclohexane-1,4′-pyrimido[5′,4′:4,5]pyrrolo[2,1-c][1,2,4]triazin]-3′-one] | 8 | 258 | 137 | 29 | 60 | 653 | 106 | > 1000 |
| CN1CCN(S(=O)(=O)c2ccc(Nc3ncc4cc5n(c4n3)C3(CCCCC3)C(=O)NN5)cc2)CC1 [Compound 49, 7′-((4-((4-methylpiperazin-1-yl)sulfonyl)phenyl)amino)-1′,2′-dihydro-3′H-spiro[cyclohexane-1,4′-pyrimido[5′,4′:4,5]pyrrolo[2,1-c][1,2,4]triazin]-3′-one] | 10 | 478 | 480 | 45 | 253 | 199 | 115 | 242 |
| Nc1ccc(S(=O)(=O)Nc2ncc3cc4n(c3n2)C2(CCCCC2)CNC4=O)cc1 [Compound 91, 4-amino-N-(6′-oxo-7′,8′-dihydro-6′H-spiro[cyclohexane-1,9′-pyrazino[1′,2′:1,5]pyrrolo[2,3-d]pyrimidin]-2′-yl)benzenesulfonamide] | 287 | > 1000 | 920 | 322 | 361 | 183 | – | – |
| CNC(=O)Nc1ccc(Nc2ncc3cc4n(c3n2)C2(CCCCC2)C(=O)NN4)cc1 [Compound 68, 1-methyl-3-(4-((3′-oxo-2′,3′-dihydro-1′H-spiro[cyclohexane-1,4′-pyrimido[5′,4′:4,5]pyrrolo[2,1-c][1,2,4]triazin]-7′-yl)amino)phenyl)urea] | 349 | > 1000 | > 1000 | 841 | 595 | 284 | – | – |
| CN1CCN(C(=O)c2ccc(Nc3ncc4cc5n(c4n3)C3(CCCCC3)C(=O)NN5)cc2)CC1 [Compound 52, 7′-((4-(4-methylpiperazine-1-carbonyl)phenyl)amino)-1′,2′-dihydro-3′H-spiro[cyclohexane-1,4′-pyrimido[5′,4′:4,5]pyrrolo[2,1-c][1,2,4]triazin]-3′-one] | 4.5 | 242 | 75 | 18 | 27 | 318 | 75 | > 1000 |
| CC1C(=O)Nc2cc3cnc(Nc4ccc(S(N)(=O)=O)cc4)nc3n2C12CCCCC2 (stereo not shown) [Compound 42, 4-((8′-methyl-7′-oxo-7′,8′-dihydro-6′H-spiro[cyclohexane-1,9′-pyrrolo[1,5-a:2,3-d′]dipyrimidin]-2′-yl)amino)benzenesulfonamide] | 1 | 7 | – | 1 | – | 6 | 10 | – |
| Nc1ccc(S(=O)(=O)Nc2ncc3cc4n(c3n2)C2(CCCCC2)C(=O)NN4)cc1 [Compound 84, 4-amino-N-(3′-oxo-2′,3′-dihydro-1′H-spiro[cyclohexane-1,4′-pyrimido[5′,4′:4,5]pyrrolo[2,1-c][1,2,4]triazin]-7′-yl)benzenesulfonamide] | 207 | > 1000 | > 1000 | 571 | > 1000 | > 1000 | – | – |
| CC1C(=O)N(C)c2cc3cnc(Nc4ccc(S(N)(=O)=O)cc4)nc3n2C12CCCCC2 (stereo not shown) [Compound 43, 4-((6′,8′-dimethyl-7′-oxo-7′,8′-dihydro-6′H-spiro[cyclohexane-1,9′-pyrrolo[1,5-a:2,3-d′]dipyrimidin]-2′-yl)amino)benzenesulfonamide] | 4 | 33 | – | 4 | – | 21 | 29 | – |
